Laboratory results: patent publication US7858630B2, “D3 and 5-HT2A receptor modulators” (Hoffmann-La Roche Inc., priority 2008, dated 2010)

Tests used:
[1] = target: T1, human serotonin 5-HT2A receptor (Homo sapiens, UniProt P28223); assay: Radioligand binding ([3H]-ketanserin) to membranes of HEK-293 EBNA cells expressing human 5-HT2A receptor; details: 1.1 nM [3H]-ketanserin, HEK-293 EBNA membranes, 1 h at RT
T1 construct: expressed in transfected cells; host or cells: HEK-293 EBNA cells, transient transfection; membrane preparation
Experimental: (§1) The ability of the compounds to bind to the 5-HT2A, D3 and D2 receptors was determined using radioligand binding to cloned receptors selectively expressed in HEK-293 EBNA cells.
(§2) Membrane Preparation for Human D2, Human D3 and Human 5-HT2A Receptors
(§3) HEK-293 EBNA cells were transiently transfected with expression plasmids encoding for the human D2 or D3 dopamine- or for the human 5-HT2A serotonin receptor, respectively. The cells were harvested 48 h post-transfection, washed three times with cold PBS and stored at −80° C. prior to use. The pellet was suspended in cold 50 mM Tris-HCl buffer containing 10 mM EDTA (pH 7.4) and homogenized with a Polytron (Kinematica AG, Basel, Switzerland) for 20-30 sec at 12.000 rpm. After centrifugation at 48.000×g for 30 min at 4° C., the pellet was resuspended in cold 10 mM Tris-HCl buffer containing 0.1 mM EDTA (pH 7.4), homogenized, and centrifuged as above. This pellet was further resuspended in a smaller volume of ice cold 10 mM Tris-HCl buffer containing 0.1 mM EDTA (pH 7.4) and homogenized with a Polytron for 20-30 sec at 12.000 rpm. The protein content of this homogenate was determined with the Bio-Rad (Bradford) Protein Assay (Biorad Laboratories GmbH, München, Germany) according to the instructions of the manufacturer using gamma globulin as the standard. This homogenate was stored at −80° C. in aliquots and thawed immediately prior to use.
(§4) Radioligand Binding Assay Conditions
(§5) Aliquots of membrane preparations were thawed at RT, resupended in assay buffer (D2, D3: 50 mM Tris-HCl, 120 mM NaCl, 5 mM MgCl2, 1 mM EDTA, 5 mM KCl, 1.5 mM CaCl2, pH=7.4; 5-HT2A: 50 mM Tris-HCl, 10 mM MgCl2, 1 mM EGTA, pH=7.4), homogenized with a Polytron for 20-30 sec at 12.000 rpm and adjusted to a final concentration of approximately 7.5 μg protein/well (D2, D3) and 15 μg protein/well (5-HT2A), respectively.
(§6) The binding affinity (Ki) of the compounds was determined using radioligand binding. Membranes were incubated in a total volume of 200 μl with a fixed concentration of radioligand (final concentration approximately 0.7 nM [^3H]-spiperone for D2, 0.5 nM [^3H]-spiperone for D3, and 1.1 nM [^3H]-ketanserin for 5-HT2A) and ten concentrations of test compound in ranging between 10 μM-0.1 nM for 1 h at RT. At the end of the incubation, the reaction mixtures were filtered on to unifilter 96-well white microplates with bonded GF/C filters (Packard BioScience, Zurich, Switzerland; preincubated for 1 h in 0.1% polyethylenimine (PEI) in assay buffer) with a Filtermate 196 harvester (Packard BioScience) and washed 3 times with cold assay buffer. The nonspecific binding was determined with equally composed reaction mixtures in the presence of 10 μM unlabelled spiperone. Per well 45 μl of Microscint 40 (Perkin Elmer, Schwerzenbach, Switzerland) was added, plates for sealed, shaken for 20 min and counted for 3 min on a Topcount Microplate Scintillation Counter (Canberra Packard SA, Zurich, Switzerland) with quenching correction.
(§7) The CPM value for each duplicate of a concentration of competing compound was averaged (y1), then the % specific binding was calculated according to the equation (((y1−non-specific)/(total binding-non-specific))×100). Graphs were plotted with the % specific binding using XLfit, a curve fitting program that iteratively plots the data using Levenburg Marquardt algorithm. The single site competition analysis equation used was y=A+((B−A)/(1+((x/C)^D))), where y is the % specific binding, A is the minimum y, B is the maximum y, C is the IC50, x is the log10 of the concentration of the competing compound and D is the slope of the curve (the Hill Coefficient). From these curves the IC50 (inhibition concentration at which 50% specific binding of the radioligand was displaced) and Hill coefficient were determined. […]

[2] = target: T2, human dopamine D3 receptor (Homo sapiens, UniProt P35462); assay: Radioligand binding ([3H]-spiperone) to membranes of HEK-293 EBNA cells expressing human D3 receptor; details: human D3, 0.5 nM [3H]-spiperone, HEK-293 EBNA membranes, 1 h at RT
T2 construct: expressed in transfected cells; host or cells: HEK-293 EBNA cells, transient transfection; membrane preparation
Experimental: as §1, §2, §3, §4, §5, §6, §7

[3] = target: T3, human dopamine D2 receptor (Homo sapiens, UniProt P14416); assay: Radioligand binding ([3H]-spiperone) to membranes of HEK-293 EBNA cells expressing human D2 receptor; details: human D2, 0.7 nM [3H]-spiperone, HEK-293 EBNA membranes, 1 h at RT
T3 construct: expressed in transfected cells; host or cells: HEK-293 EBNA cells, transient transfection; membrane preparation
Experimental: as §1, §2, §3, §4, §5, §6, §7

T1 sequence (P28223 whole entry): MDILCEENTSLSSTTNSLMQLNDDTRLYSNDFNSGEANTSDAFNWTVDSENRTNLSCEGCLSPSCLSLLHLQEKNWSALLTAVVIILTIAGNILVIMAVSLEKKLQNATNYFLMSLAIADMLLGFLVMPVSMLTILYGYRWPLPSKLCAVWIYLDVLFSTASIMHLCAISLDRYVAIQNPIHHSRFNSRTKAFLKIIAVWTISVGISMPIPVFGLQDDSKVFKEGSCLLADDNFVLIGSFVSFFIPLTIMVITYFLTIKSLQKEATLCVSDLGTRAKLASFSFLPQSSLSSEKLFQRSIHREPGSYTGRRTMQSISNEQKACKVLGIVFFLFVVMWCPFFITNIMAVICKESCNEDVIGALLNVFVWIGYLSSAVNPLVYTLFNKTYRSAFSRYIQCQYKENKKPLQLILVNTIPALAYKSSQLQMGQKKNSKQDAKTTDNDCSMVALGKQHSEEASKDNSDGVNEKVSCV
T3 sequence (P14416 whole entry): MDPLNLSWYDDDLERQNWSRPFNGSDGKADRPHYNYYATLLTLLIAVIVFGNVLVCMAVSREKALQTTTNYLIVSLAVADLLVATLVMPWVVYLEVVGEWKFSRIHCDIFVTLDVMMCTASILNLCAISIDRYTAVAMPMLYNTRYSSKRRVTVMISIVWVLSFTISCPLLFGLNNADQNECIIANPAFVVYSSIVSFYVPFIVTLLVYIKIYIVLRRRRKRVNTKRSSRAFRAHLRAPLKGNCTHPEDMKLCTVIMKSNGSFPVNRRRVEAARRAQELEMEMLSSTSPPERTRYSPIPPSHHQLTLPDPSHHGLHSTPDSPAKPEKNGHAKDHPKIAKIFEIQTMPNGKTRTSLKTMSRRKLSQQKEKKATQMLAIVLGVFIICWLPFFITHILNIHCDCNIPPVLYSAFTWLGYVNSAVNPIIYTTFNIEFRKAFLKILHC
T2 sequence (P35462 whole entry): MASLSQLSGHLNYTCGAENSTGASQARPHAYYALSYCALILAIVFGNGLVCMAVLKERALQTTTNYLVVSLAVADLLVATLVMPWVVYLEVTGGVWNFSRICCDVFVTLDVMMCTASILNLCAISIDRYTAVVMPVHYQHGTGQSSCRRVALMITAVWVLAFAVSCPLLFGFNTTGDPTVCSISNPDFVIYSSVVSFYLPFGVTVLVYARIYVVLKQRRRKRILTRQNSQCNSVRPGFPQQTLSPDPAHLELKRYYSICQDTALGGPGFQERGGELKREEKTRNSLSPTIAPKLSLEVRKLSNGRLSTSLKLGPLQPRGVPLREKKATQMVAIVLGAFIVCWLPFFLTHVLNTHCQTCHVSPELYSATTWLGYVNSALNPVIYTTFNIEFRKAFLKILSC

SMILES | Ki [1] [nM] | Ki [2] [nM] | Ki [3] [nM]
NC(=O)CC(=O)N[C@H]1CC[C@H](CCN2CCN(c3noc4ccc(F)cc34)CC2)CC1 [Example 17, N-trans-(4-{2-[4-(5-Fluoro-benzo[d]isoxazol-3-yl)-piperazin-1-yl]-ethyl}-cyclohexyl)-malonamide] | 25.4 | 1.83 | 592
CC1(CC(=O)N[C@H]2CC[C@H](CCN3CCN(c4noc5ccc(F)cc45)CC3)CC2)COC1 [Example 21, N-trans-(4-{2-[4-(5-Fluoro-benzo[d]isoxazol-3-yl)-piperazin-1-yl]-ethyl}-cyclohexyl)-2-(3-methyl-oxetan-3-yl)-acetamide] | 11.1 | 2.61 | 307
CC1(C)C[C@H](CC(=O)N[C@H]2CC[C@H](CCN3CCN(c4noc5ccc(F)cc45)CC3)CC2)CCO1 [Example 23, 2-((R)-2,2-Dimethyl-tetrahydro-pyran-4-yl)-N-(4-{2-[4-(5-fluoro-benzo[d]isoxazol-3-yl)-piperazin-1-yl]-ethyl}-cyclohexyl)-acetamide] | 26.8 | 7.03 | 1060
O=C(CC1OCCCO1)N[C@H]1CC[C@H](CCN2CCN(c3noc4ccc(F)cc34)CC2)CC1 [Example 24, 2-[1,3]Dioxan-2-yl-N-trans-(4-{2-[4-(5-fluoro-benzo[d]isoxazol-3-yl)-piperazin-1-yl]-ethyl}-cyclohexyl)-acetamide] | 16.8 | 4.55 | 1070
COC(CC(=O)N[C@H]1CC[C@H](CCN2CCN(c3noc4ccc(F)cc34)CC2)CC1)OC [Example 26, N-trans-(4-{2-[4-(5-Fluoro-benzo[d]isoxazol-3-yl)-piperazin-1-yl]-ethyl}-cyclohexyl)-3,3-dimethoxy-propionamide] | 15.9 | 2.12 | 761
COC(CCC(=O)N[C@H]1CC[C@H](CCN2CCN(c3noc4ccc(F)cc34)CC2)CC1)OC [Example 28, N-trans-(4-{2-[4-(5-Fluoro-benzo[d]isoxazol-3-yl)-piperazin-1-yl]-ethyl}-cyclohexyl)-4,4-dimethoxy-butyramide] | 22.8 | 8.78 | 918
COCCC(=O)N[C@H]1CC[C@H](CCN2CCN(c3noc4cc(Cl)ccc34)CC2)CC1 [Example 29, N-trans-(4-{2-[4-(6-Chloro-benzo[d]isoxazol-3-yl)-piperazin-1-yl]-ethyl}-cyclohexyl)-3-methoxy-propionamide] | 8.59 | 8.68 | 490
CC(=O)N[C@H]1CC[C@H](CCN2CCN(c3noc4cc(Cl)ccc34)CC2)CC1 [Example 30, N-trans-(4-{2-[4-(6-Chloro-benzo[d]isoxazol-3-yl)-piperazin-1-yl]-ethyl}-cyclohexyl)-acetamide] | 8.65 | 9.18 | 675
CO[C@H]1CC[C@H](CC(=O)N[C@H]2CC[C@H](CCN3CCN(c4noc5cc(Cl)ccc45)CC3)CC2)CC1 [Example 31, N-trans-(4-{2-[4-(6-Chloro-benzo[d]isoxazol-3-yl)-piperazin-1-yl]-ethyl}-cyclohexyl)-2-trans-(4-methoxy-cyclohexyl)-acetamide] | 2.9 | 8.89 | 4990

The remaining compounds from weak to strong by Ki [1], led by results:

Ki [1] [nM] | Ki [2] [nM] | Ki [3] [nM] | SMILES
35.1 | 41.4 | 3440 | COC1CCC(C(=O)N[C@H]2CC[C@H](CCN3CCN(c4noc5ccc(F)cc45)CC3)CC2)CC1 (stereo partly drawn) [Example 13, 4-Methoxy-cyclohexanecarboxylic acid N-trans-(4-{2-[4-(5-fluoro-benzo[d]isoxazol-3-yl)-piperazin-1-yl]-ethyl}-cyclohexyl)-amide]
32.7 | 7.81 | 1030 | CC1(C)C[C@@H](CC(=O)N[C@H]2CC[C@H](CCN3CCN(c4noc5ccc(F)cc45)CC3)CC2)CCO1 [Example 22, 2-((S)-2,2-Dimethyl-tetrahydro-pyran-4-yl)-N-(4-{2-[4-(5-fluoro-benzo[d]isoxazol-3-yl)-piperazin-1-yl]-ethyl}-cyclohexyl)-acetamide]
28.1 | 3.37 | 1070 | CS(=O)(=O)N[C@H]1CC[C@H](CCN2CCN(c3noc4ccc(F)cc34)CC2)CC1 [Example 14, N-trans-(4-{2-[4-(5-Fluoro-benzo[d]isoxazol-3-yl)-piperazin-1-yl]-ethyl}-cyclohexyl)-methanesulfonamide]
26.2 | 10 | 718 | COC[C@H]1C[C@H](CC(=O)N[C@H]2CC[C@H](CCN3CCN(c4noc5ccc(F)cc45)CC3)CC2)C1 [Example 27, N-trans-(4-{2-[4-(5-Fluoro-benzo[d]isoxazol-3-yl)-piperazin-1-yl]-ethyl}-cyclohexyl)-2-trans-(3-methoxymethyl-cyclobutyl)-acetamide]
19.3 | 5.55 | 386 | O=C(C[C@H]1C[C@H](CO)C1)N[C@H]1CC[C@H](CCN2CCN(c3noc4ccc(F)cc34)CC2)CC1 [Example 20, N-trans-(4-{2-[4-(5-Fluoro-benzo[d]isoxazol-3-yl)-piperazin-1-yl]-ethyl}-cyclohexyl)-2-trans-(3-hydroxymethyl-cyclobutyl)-acetamide]
15.4 | 6.34 | 752 | O=C(CC1COCCO1)N[C@H]1CC[C@H](CCN2CCN(c3noc4ccc(F)cc34)CC2)CC1 (stereo partly drawn) [Example 15, 2-[1,4]Dioxan-2-yl-N-trans-(4-{2-[4-(5-fluoro-benzo[d]isoxazol-3-yl)-piperazin-1-yl]-ethyl}-cyclohexyl)-acetamide]
14.4 | 21.4 | 1440 | COC1CCCC(C(=O)N[C@H]2CC[C@H](CCN3CCN(c4noc5ccc(F)cc45)CC3)CC2)C1 (stereo partly drawn) [Example 16, 3-Methoxy-cyclohexanecarboxylic acid N-trans-(4-{2-[4-(5-fluoro-benzo[d]isoxazol-3-yl)-piperazin-1-yl]-ethyl}-cyclohexyl)-amide]
13.3 | 14.1 | 496 | COC1CCN(CC(=O)N[C@H]2CC[C@H](CCN3CCN(c4noc5ccc(F)cc45)CC3)CC2)CC1 [Example 25, N-trans-(4-{2-[4-(5-Fluoro-benzo[d]isoxazol-3-yl)-piperazin-1-yl]-ethyl}-cyclohexyl)-2-(4-methoxy-piperidin-1-yl)-acetamide]
10.4 | 18.8 | 193 | O=C(N[C@H]1CC[C@H](CCN2CCN(c3noc4cc(Cl)ccc34)CC2)CC1)C1CCOC1 (stereo partly drawn) [Example 34, Tetrahydro-furan-3-carboxylic acid N-trans-(4-{2-[4-(6-chloro-benzo[d]isoxazol-3-yl)-piperazin-1-yl]-ethyl}-cyclohexyl)-amide]
2.37 | 15.9 | 3040 | O=C(N[C@H]1CC[C@H](CCN2CCN(c3noc4cc(Cl)ccc34)CC2)CC1)C1CCOCC1 [Example 32, Tetrahydro-pyran-4-carboxylic acid N-trans-(4-{2-[4-(6-chloro-benzo[d]isoxazol-3-yl)-piperazin-1-yl]-ethyl}-cyclohexyl)-amide]
